Test results taken from patent publication US8623862B2, “Derivatives of N-[(1H-pyrazol-1-yl)aryl]-1H-indole or 1H-indazole-3-carboxamide, preparation thereof and applications thereof in therapeutics” (Sanofi, priority 2011, dated 2014).
Read-outs that look alike come from different tables or passages of the source.

Test system: platelet aggregation
Assay: Inhibition of platelet aggregation in vitro (rat blood);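 also: aggregation induced by ADP added as 4 µL of a 250 µM solution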
Assay type: cell-based
Settings: read-out: Inhibition of platelet aggregation in vitro (rat blood);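 also: aggregation induced by ADP added as 4 µL of a 250 µM solution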
Procedure: The measurements of platelet aggregation are performed at 37° C. in glass tubes (Chrono-Log—Kordia aggregometer).
Inhibition of Platelet Aggregation In Vitro (Rat Blood)
The blood is taken from male rats of the Sprague-Dawley strain, weighing 250-300 g.
The platelet-rich plasma (PRP) is obtained by centrifugation of the blood at 300 g for 5 minutes, and the measurements of platelet aggregation are performed as described above.
The results are calculated using the area under the curve of absorbance measured for 6 minutes, and expressed as percentage inhibition.

[1] = rat platelet-rich plasma, ADP-induced aggregation, area under the curve of absorbance for 6 minutes

Compound | IC50 (rat blood, in vitro) [nM] | IC50 [1] [nM]
CCCC(=O)c1cnn(-c2ccc(NC(=O)c3cn(CC(=O)N4CCN(CC(=O)N(C)C)CC4)c4ccc(Cl)cc34)nn2)c1C [Compound 101] | – | 110
CCCC(=O)c1cnn(-c2ccc(NC(=O)c3cn(CC(=O)N4CCN(C)C(C)C4)c4ccc(C)cc34)cc2)c1C (centres unmarked) [Compound 269] | – | 350
CCCC(=O)c1cnn(-c2ccc(NC(=O)c3cn(CC(=O)N4CCS(=O)(=O)CC4)c4ccc(Cl)cc34)nn2)c1C [Compound 71] | – | 120
CCCC(=O)c1cnn(-c2ccc(NC(=O)c3cn(CC(=O)O)c4cc(Cl)c(Cl)cc34)cc2)c1C [Compound 17] | – | 7300
CCCC(=O)c1cnn(-c2ccc(NC(=O)c3cn(CC(=O)N4CC5CC4CN5C)c4ccc(C)cc34)cc2)c1C (centres unmarked) [Compound 264] | – | 560
CCCC(=O)c1cnn(-c2ccc(NC(=O)c3cn(CC(=O)N4CC(C)N(C)C(C)C4)c4ccc(C)cc34)cc2)c1C (centres unmarked) [Compound 263] | – | 420
CCCC(=O)c1cnn(-c2ccc(NC(=O)c3cn(CC(=O)N4CCN(Cc5ccc(F)cc5)CC4)c4ccc(Cl)cc34)nn2)c1C [Compound 92] | – | 200
CCCC(=O)c1cnn(-c2ccc(NC(=O)c3cn(CC(=O)N4CCC(O)CC4)c4ccc(Cl)cc34)nn2)c1C [Compound 68] | – | 70
CCCC(=O)c1cnn(-c2ccc(NC(=O)c3cn(CC(=O)N4CCN(C)C(CO)C4)c4ccc(C)cc34)cc2)c1C (centres unmarked) [Compound 268] | – | 240
CCCC(=O)c1cnn(-c2ccc(NC(=O)c3cn(CC(=O)N4CCN(C)C(=O)C4)c4ccc(Cl)cc34)nn2)c1C [Compound 44] | – | 160
CCCC(=O)c1cnn(-c2ccc(NC(=O)c3cn(CC(=O)N4CCC(CCO)CC4)c4ccc(Cl)cc34)nn2)c1C [Compound 50] | – | 50
CCCC(=O)c1cnn(-c2ccc(NC(=O)c3cn(CC(=O)N4CCN(CC5CC5)CC4)c4ccc(C)cc34)cc2)c1C [Compound 121] | 1060 | –
CCCC(=O)c1cnn(-c2ccc(NC(=O)c3cn(CC(=O)N4CC(O)C4)c4ccc(Cl)cc34)nn2)c1C [Compound 66] | – | 220
CCCC(=O)c1cnn(-c2ccc(NC(=O)c3cn(CC(=O)O)c4cc(Br)c(C)cc34)cc2)c1C [Compound 19] | – | 42000
CCCC(=O)c1cnn(-c2ccc(NC(=O)c3cn(CC(=O)N(C)C4CC4)c4ccc(Cl)cc34)nn2)c1C [Compound 90] | – | 60
CCCC(=O)c1cnn(-c2ccc(NC(=O)c3cn(CC(=O)N(C)CCCO)c4ccc(Cl)cc34)nn2)c1C [Compound 72] | – | 60
CCCC(=O)c1cnn(-c2ccc(NC(=O)c3cn(CC(=O)N4CC5CCN(C)C5C4)c4ccc(C)cc34)cc2)c1C (centres unmarked) [Compound 265] | – | 790
CCCC(=O)c1cnn(-c2ccc(NC(=O)c3cn(CC(=O)N4CC5CNCC5C4)c4ccc(C)cc34)cc2)c1C (centres unmarked) [Compound 255] | – | 180
CCCC(=O)c1cnn(-c2ccc(NC(=O)c3cn(CC(=O)N4CCNCC4C)c4ccc(Cl)cc34)cc2)c1C (centres unmarked) [Compound 258] | – | 300
CCCC(=O)c1cnn(-c2ccc(NC(=O)c3cn(CC(=O)N4CC(N5CCOCC5)C4)c4ccc(Cl)cc34)nn2)c1C [Compound 104] | – | 100
CCCC(=O)c1cnn(-c2ccc(NC(=O)c3cn(CC(=O)NC)c4ccc(Cl)cc34)nn2)c1C [Compound 32] | – | 190
CCCC(=O)c1cnn(-c2ccc(NC(=O)c3cn(CC(=O)O)c4ccc(Br)cc34)cc2)c1C [Compound 14] | – | 1900
CCCC(=O)c1cnn(-c2ccc(NC(=O)c3cn(CC(=O)N4CCOCC4)c4ccc(Cl)cc34)nn2)c1C [Compound 35] | – | 190
CCCC(=O)c1cnn(-c2ccc(NC(=O)c3cn(CC(=O)N4CCN5CCCCC5C4)c4ccc(Cl)cc34)nn2)c1C (racemic) [Compound 67] | – | 90
CCCC(=O)c1cnn(-c2ccc(NC(=O)c3cn(CC(=O)N4CCN(CC5CCCO5)CC4)c4ccc(Cl)cc34)nn2)c1C (racemic) [Compound 63] | – | 120
CCCC(=O)c1cnn(-c2ccc(NC(=O)c3cn(CC(=O)N4CCC(OC)CC4)c4ccc(Cl)cc34)nn2)c1C [Compound 94] | – | 180
CCCC(=O)c1cnn(-c2ccc(NC(=O)c3cn(CC(=O)N4CCN(C5CCC5)CC4)c4ccc(Cl)cc34)nn2)c1C [Compound 79] | – | 80
CCCC(=O)c1cnn(-c2ccc(NC(=O)c3cn(CC(=O)N4CCC(C(F)(F)F)C4)c4ccc(Cl)cc34)nn2)c1C (centres unmarked) [Compound 75] | – | 270
CCCC(=O)c1cnn(-c2ccc(NC(=O)c3cn(CC(=O)O)c4ccc(C#N)cc34)cc2)c1C [Compound 23] | – | 4100
CCCC(=O)c1cnn(-c2ccc(NC(=O)c3cn(CC(=O)N4CCN(CCOCC)CC4)c4ccc(Cl)cc34)nn2)c1C [Compound 93] | – | 150

Further lines, with some results ahead:

IC50 (rat blood, in vitro) [nM] | Compound | IC50 [1] [nM]
830 | CCCC(=O)c1cnn(-c2ccc(NC(=O)c3cn(CC(=O)N4CCC(OCCOC)C4)c4ccc(Cl)cc34)cc2)c1C (centres unmarked) [Compound 206] | –
230 | CCCC(=O)c1cnn(-c2ccc(NC(=O)c3cn(CC(=O)N4CCN(C)C(CCOC)C4)c4ccc(Cl)cc34)cc2)c1C (centres unmarked) [Compound 196] | –
270 | CCCC(=O)c1cnn(-c2ccc(NC(=O)c3cn(CC(=O)N4CCn5cnnc5C4)c4ccc(Cl)cc34)cc2)c1C [Compound 182] | –
2420 | CCCC(=O)c1cnn(-c2ccc(NC(=O)c3cn(CC(=O)NC)c4cc(C)c(C)cc34)cc2)c1C [Compound 109] | –
600 | CCC(=O)c1cnn(-c2ccc(NC(=O)c3cn(CC(=O)N4CCN(C)CC4)c4ccc(Cl)cc34)cc2)c1C [Compound 217] | –
310 | CCCC(=O)c1cnn(-c2ccc(NC(=O)c3cn(CC(=O)N4CCN(Cc5ccc(F)cc5)CC4)c4ccc(Cl)cc34)cc2)c1C [Compound 165] | –
660 | CCCC(=O)c1cnn(-c2ccc(NC(=O)c3cn(CC(=O)N4CC5CC4CN5C4CCC4)c4ccc(Cl)cc34)cc2)c1C (centres unmarked) [Compound 214] | –
2210 | CCCC(=O)c1cnn(-c2ccc(NC(=O)c3cn(CC(=O)N(C)C)c4cc(C)c(C)cc34)cc2)c1C [Compound 106] | –
370 | CCCC(=O)c1cnn(-c2ccc(NC(=O)c3cn(CC(=O)N4CCC(OCCO)C4)c4ccc(Cl)cc34)cc2)c1C (centres unmarked) [Compound 208] | –
650 | CCCC(=O)c1cnn(-c2ccc(NC(=O)c3cn(CC(=O)N4CCN(CC(F)(F)F)CC4)c4ccc(C)cc34)cc2)c1C [Compound 129] | –
760 | CCCC(=O)c1cnn(-c2ccc(NC(=O)c3cn(CC(=O)N(C)CCNC)c4ccc(C)cc34)cc2)c1C [Compound 126] | –
1380 | CCCC(=O)c1cnn(-c2ccc(NC(=O)c3cn(CC(=O)N4CCN(C)CC4)c4ccc(C#N)cc34)cc2)c1C [Compound 160] | –
370 | CCCC(=O)c1cnn(-c2ccc(NC(=O)c3cn(CC(=O)N4CCN(CCOCC)CC4)c4ccc(Cl)cc34)cc2)c1C [Compound 161] | –
3700 | CCCC(=O)c1cnn(-c2ccc(NC(=O)c3cn(CC(=O)N4CCN(C)CC4)c4cc(Cl)c(Cl)cc34)cc2)c1C [Compound 111] | –
410 | CCCC(=O)c1cnn(-c2ccc(NC(=O)c3cn(CC(=O)N4CCC(F)(F)C4)c4ccc(Cl)cc34)cc2)c1C [Compound 189] | –
290 | CCCC(=O)c1cnn(-c2ccc(NC(=O)c3cn(CC(=O)N4CCN(CC(F)F)CC4)c4ccc(C)cc34)cc2)c1C [Compound 118] | –
270 | CCCC(=O)c1cnn(-c2ccc(NC(=O)c3cn(CC(=O)N4CCN(C)CC4)c4ccc(C)cc34)cc2)c1C [Compound 114] | –
